Laboratory results from patent publication US4288609A, “Quaternary ammonium derivatives of adamantane with antimicrobic activity” (priority 1976, dated 1981).
Like-named read-outs stand apart in the source and are kept apart here.

Experiments:
[1] = Acute oral toxicity in mice (Table 4); conditions: mouse, in vivo, po, LD50, oral, mice, 14 days
Protocol: The substances were administered orally to groups of 10 female mice CF1 of average weight of about 20 grams, in aqueous solution and in such way that the total volume administered would be in each case 1 ml/100 g of weight.

[2] = tested on: Candida albicans; experiment: Activity upon vaginal candidiasis in mice (Table 7); type: in vivo, female Swiss mice (Charles River CD1); conditions: for proliferation index (individual): eighth day
Protocol: The treatment groups consist each of 8 female Swiss mice (Charles River CD1) of average weight 20 g. The animals are infected with 0.025 ml of a 24 hour culture of Candida albicans, equal to 10^6 cellules.
0.025 ml of a suspension in lanoline of the compound to be tested, at the desired concentration, are applied locally twice a day for a week, the first treatment being started five hours after infection.
The control group is treated with the lanoline alone in the same way. On the eighth day vaginal washings are carried out with 0.025 ml of sterile physiological solution, and the liquid is sown in Petri dishes containing Bacto Biggy Agon Difco as a selective growing medium for the Candida.
After 48 hours of incubation of the dishes at 30° C. a count is taken of the colonies which have grown. Assessment of the activity is quantized using the indices listed here below:
The results are expressed as percentages of the average index of seriousness of the infection A.D.I. (Average Degree of Infection) in the animals treated with respect to the animals in the control group.
The substances under examination were tested at concentrations of 5 and 3% by weight.

[3] = tested on: Trich. Vaginalis ISM 66/22; experiment: MIC protozoa, Trichomonas vaginalis (Table 2); type: cell-based; conditions: +10% serum (head), Kupferberg Trichomonas broth with 5% of horse serum
Protocol: (§1) The method for evaluating the activity in vitro against bacteria, fungi and protozoa consists in introducing calculated quantities of the substance, the activity of which it is desired to test, into culture media already inoculated with a predetermined number of test germs.
(§2) After 24 or 48 hours of incubation at 30° or 37° C., according to the micro-organism being tested, it is possible to evaluate the growth of the same in the culture broth; in this manner the minimum concentration (M.I.C.) which inhibits the growth of the micro-organisms in vitro is determined.
Inoculation with Trichomonas vaginalis and Trichomonas foetus, obtained from cultures transplanted every other day to make them lively, was effected in a ratio of 3.5% of the volume of medium used.
(§3) For the fungi Sabourand broth was used as a culture medium, whilst for the protozoa Kupferberg Trichomonas broth with 5% of horse serum was used.

[4] = tested on: Escherichia Coli SKF 12140; experiment: Speed of sterilising action, Escherichia Coli (Table 3); type: cell-based
Protocol: (§4) The strains, inoculants, culture broths and experimental methods are as already seen for calculating the M.I.C. in vitro. The antimicrobic substances were tested at concentrations of 0.1, 0.25, 0.5 and 1 g/l, the contact times taken into consideration are 0, 1, 2.5, 5, 7.5, 10, 15, 30 and 60 minutes.
(§5) The samples which at the 7th day of incubation still had no growth of micro-organisms which could be observed macroscopically and/or microscopically were considered sterile.
(§6) The results are recorded in Table 3 in terms of sterilization time expressed in minutes.

[5] = tested on: Nicrosporum Canis ATCC 11621; experiment: MIC mildews, Microsporum canis (Table 2); type: cell-based; conditions: Sabourand broth
Protocol: as §1, §2
Inoculation with Trichophyton mentagrophytes and Microsporum canis was effected in a ratio of 1% of the volume of medium used.
as §3

[6] = tested on: Staphylococcus Aureus Tour; experiment: Speed of sterilising action, Staphylococcus Aureus (Table 3); type: cell-based
Protocol: as §4, §5, §6

[7] = tested on: Trichomonas Vaginalis ISM 66/22; experiment: Speed of sterilising action, Trichomonas Vaginalis (Table 3); type: cell-based
Protocol: as §4, §5, §6

[8] = tested on: Staph.Aureus Tour; experiment: M.I.C. in vitro, gram+ Staph. Aureus (Table 1); type: cell-based, Staphylococcus Aureus; conditions: for MIC: Staphylococcus aureus, read-out: M.I.C.
Protocol: as §1, §2
In table 1 there are recorded the M.I.C. values in γ/ml of the products subject of the present invention, against certain gram+ and gram- bacterial strains, some of which are pathogenic towards human beings.

[9] = tested on: all the micro-organisms tested; experiment: Speed of sterilising action, all micro-organisms; type: cell-based; conditions: even with a very low concentration
Protocol: as §4, §5, §6

[10] = tested on: Candida Pseudotrop. ATCC 2512; experiment: MIC yeasts, Candida pseudotropicalis (Table 2); type: cell-based; conditions: Sabourand broth
Protocol: as §1, §2
Inoculation with Candida albicans or Candida pseudotropicalis was made by diluting cultures grown for 24 h at 30° C. (cellular density inoculated 10^3 /ml).
as §3

[11] = Microsporum canis, ATCC11621, +10% serum, read-out: MIC
[12] = Trichomonas vaginalis, read-out: MIC
[13] = Microsporum canis, ATCC11621, without serum, read-out: MIC
[14] = Candida, ATCC2512, +10% serum, read-out: MIC
[15] = Candida, ATCC2512, without serum, read-out: MIC

With `CCCCCCCCCC[N+](C)(C)CCOC(=O)C12CC3CC(CC(C3)C1)C2` (single isomer, unassigned) [Example 1, n-Decyl-dimethyl-(1-adamantane-carboxy)-ethyl-ammonium bromide] the LD50 at 336 h [1] was 910 mg/kg, the “% of healing (100-A.D.I. %)” value ([2]; 3% by weight) was 63.03% and the “A.D.I. (compared with controls)” value ([2]; 3% by weight) was 36.97%. The “average proliferation index (A.D.I)” value ([2]; 3% by weight) was 0.88, the “% of healing (100-A.D.I. %)” value ([2]; 5% by weight) was 84.03% and the “A.D.I. (compared with controls)” value ([2]; 5% by weight) was 15.97%. The “average proliferation index (A.D.I)” value ([2]; 5% by weight) was 0.38, the “no. of animals surviving” value ([2]; mouse, in vivo) was 8 and the “tolerance by vaginal mucous membrane” value ([2]; mouse, in vivo) was “perfectly tolerated by very delicate tissues”. The “topical in vivo activity against Candida albicans (in words)” value (shortened to “topical in vivo activity”) ([2]; mouse, in vivo) was “excellent topical activity "in vivo" even against Candida albicans”, the MIC [3] was 5 µg/mL and the sterilization time ([4]; 0.1 g/l) was 60 min. The sterilization time ([4]; 0.25 g/l) was 60 min, the sterilization time ([4]; 0.5 g/l) was 15 min and the sterilization time ([4]; 1 g/l) was 5 min. It also gave an MIC [5, 11] of 10 µg/mL, an MIC ([5]; without serum) of 0.1 µg/mL and a sterilization time ([6]; 0.1 g/l) of 7.5 min. For the same compound, the sterilization time ([6]; 0.25 g/l) was 2.5 min, the sterilization time ([6]; 0.5 g/l) was 1 min and the sterilization time ([6]; 1 g/l) was 1 min. It also gave a sterilization time ([7]; 0.1 g/l) of 2.5 min, a sterilization time ([7]; 0.25 g/l) of 1 min and a sterilization time ([7]; 0.5 g/l) of 1 min. For the same compound, the sterilization time ([7]; 1 g/l) was 1 min, the M.I.C. ([8]; +10% serum) was 2 µg/mL and the MIC ([8]; without serum) was under 0.1 µg/mL. For the same compound, the “sterilising action (in words)” value [9] was “swift sterilising action on all the micro-organisms tested”, the MIC ([10]; +10% serum) was 20 µg/mL and the MIC ([10]; without serum) was under 0.1 µg/mL.

In the case of `CCCCCCCCCCCC[N+](C)(C)CCOC(=O)C12CC3CC(CC(C3)C1)C2` [Example 4], the LD50 at 336 h [1] is reported as 820 mg/kg, the “% of healing (100-A.D.I. %)” value ([2]; 3% by weight) is reported as 57.98% and the “A.D.I. (compared with controls)” value ([2]; 3% by weight) is reported as 42.02%. For the same compound, the “average proliferation index (A.D.I)” value ([2]; 3% by weight) was 1.00, the “no. of animals surviving” value ([2]; 3% by weight, 8 animals) was 8 and the “proliferation index (individual)” value ([2]; 3% by weight) was 2-0-1-1-1-1--0-2. For the same compound, the “% of healing (100-A.D.I. %)” value ([2]; 5% by weight) was 84.03%, the “A.D.I. (compared with controls)” value ([2]; 5% by weight) was 15.97% and the “average proliferation index (A.D.I)” value ([2]; 5% by weight) was 0.38. For the same compound, the “no. of animals surviving” value ([2]; 5% by weight, 8 animals) was 8, the “tolerance by vaginal mucous membrane” value ([2]; mice, local) was “perfectly tolerated by very delicate tissues” and the “topical in vivo activity” value ([2]; mouse, in vivo) was “excellent topical activity "in vivo" even against Candida albicans”. The MIC [3, 12] was 5 µg/mL, the sterilization time ([4]; 0.1 g/l) was 60 min and the sterilization time ([4]; 0.25 g/l) was 60 min. For the same compound, the sterilization time ([4]; 0.5 g/l) was 30 min, the sterilization time ([4]; 1 g/l) was 10 min and the MIC [5, 11] was 20 µg/mL. The MIC [5, 13] was 0.1 µg/mL, the sterilization time ([6]; 0.1 g/l) was 7.5 min and the sterilization time ([6]; 0.25 g/l) was 5 min. It also gave a sterilization time ([6]; 0.5 g/l) of 1 min, a sterilization time ([6]; 1 g/l) of 1 min and a sterilization time ([7]; 0.1 g/l) of 2.5 min. The sterilization time ([7]; 0.25 g/l) was 1 min, the sterilization time ([7]; 0.5 g/l) was 1 min and the sterilization time ([7]; 1 g/l) was 1 min. For the same compound, the MIC ([8]; +10% serum) was 5 µg/mL, the MIC ([8]; without serum) was under 0.1 µg/mL and the “sterilising action (in words)” value [9] was “swift sterilising action on all the micro-organisms tested”. For the same compound, the MIC [10, 14] was 50 µg/mL and the MIC [10, 15] was 0.1 µg/mL.

For `CCCCCCCCCCCC[N+](C)(C)CCNC(=O)C12CC3CC(CC(C3)C1)C2` [Example 8], the LD50 at 336 h [1] was 760 mg/kg, the “% of healing (100-A.D.I. %)” value ([2]; 3% by weight) was 63.03% and the “A.D.I. (compared with controls)” value ([2]; 3% by weight) was 36.97%. For the same compound, the “average proliferation index (A.D.I)” value ([2]; 3% by weight) was 0.88, the “proliferation index (individual)” value ([2]; 3% by weight) was 0-1-1-3-0-0-0-2 and the “% of healing (100-A.D.I. %)” value ([2]; 5% by weight) was 78.99%. The “A.D.I. (compared with controls)” value ([2]; 5% by weight) was 21.01%, the “average proliferation index (A.D.I)” value ([2]; 5% by weight) was 0.50 and the “no. of animals surviving” value ([2]; 5% by weight, 8 animals) was 2. For the same compound, the “proliferation index (individual)” value ([2]; 5% by weight) was 0-0-0-2-1-0-0-1, the “tolerance by vaginal mucous membrane” value ([2]; mice, local) was “perfectly tolerated by very delicate tissues” and the “topical in vivo activity” value ([2]; mouse, in vivo) was “excellent topical activity "in vivo" even against Candida albicans”. For the same compound, the MIC [3, 12] was 2 µg/mL, the sterilization time ([4]; 0.1 g/l) was 60 min and the sterilization time ([4]; 0.25 g/l) was 60 min. It also gave a sterilization time ([4]; 0.5 g/l) of 10 min, a sterilization time ([4]; 1 g/l) of 7.5 min and an MIC [5, 11] of 20 µg/mL. For the same compound, the MIC [5, 13] was 0.1 µg/mL, the MIC ([8]; +10% serum) was 5 µg/mL and the MIC ([8]; without serum) was under 0.1 µg/mL. For the same compound, the “sterilising action (in words)” value [9] was “swift sterilising action on all the micro-organisms tested”, the MIC [10, 14] was 20 µg/mL and the MIC [10, 15] was under 0.1 µg/mL.
